Like-named read-outs stand apart in the source and are kept apart here. Marks after values point to notes of the source that are not given here.
Columns and labels:
healthy volunteers [1] = conditions: for AEs grade 1–2 CTCAE, % / AEs grade 3 CTCAE: ↑CK, % / Gastrointestinal disorders, % / Investigations, % / ↑ALT (%) / ↑CK (%) / ↓WBC (%) / SAEs: seizure (%) / Diarrhea, %: number of subjects (%); for Diarrhea, %: grade 1–2
bacteria = assay: Bacterial reverse mutation assay; assay type: cell-based
rat = assay: In vivo micronucleus test in rat
[2] = In vitro induction of chromosome aberrations; assay type: cell-based
dogs [3] = assay: 4-week study in dogs; assay type: in vivo, dog; conditions: dogs
4-week study in dogs = assay type: in vivo, dog; conditions: dog
[4] = First-in-human pharmacokinetics in healthy volunteers; assay type: in vivo; conditions: for Mean t1/2 / AUC(0-inf) / AUC(0-t) / Cmax / Tmax / Vd/F: healthy volunteers; for Mean t1/2 / AUC(0-inf) / AUC(0-t) / Cmax / Tmax / half-life / Vd/F: [SD]; for AUC(0-inf) / AUC(0-t) / Cmax / Tmax / half-life / Vd/F: human, plasma, po; for AUC(0-inf): Mean AUC0−inf; for AUC(0-t): Mean AUC0−t; for Cmax: Mean Cmax; for Tmax: Mean Tmax; for half-life: Mean t1/2, healthy volunteers
mouse model of CML‐BC = conditions: cited from earlier work
dogs [5] = assay: Single oral dose-escalation study in dogs; assay type: in vivo, dog; conditions: at 30 mg/kg/day
[6] = test system: pro‐inflammatory cytokines, chemokines, and growth factors; conditions: in vivo; cited from earlier work
healthy volunteers [7] = assay: Intensive ECG monitoring in healthy volunteers; assay type: in vivo, human
[8] = test system: stem cells derived from patients with CML‐BC or Philadelphia chromosome–positive acute lymphoblastic leukemia; conditions: in combination with tyrosine kinase inhibitors; cited from earlier work
Plasma protein binding = assay type: in vitro ADME, human, dog
phosphodiesterase 3 = assay: Phosphodiesterase 3 activity; assay type: biochemical; conditions: read-out: IC50, phosphodiesterase 3
[9] = test system: plasma cytokines, chemokines, and growth factors; assay type: in vivo, human; conditions: IL‐1β, IL‐2, IL‐4, IL‐6, IL‐8, IFNγ, TNFα; IL‐15, IL‐17A; MCP‐1, and IP‐10
[10] = 10 mg single dose FASTED (N = 16)
[11] = 20 mg single dose FASTED (N = 14)
[12] = 10 mg, oral 10 mg single dose FASTED (N = 16)
[13] = 10 mg, oral 10 mg single dose FED (N = 9)
[14] = 20 mg, oral 20 mg single dose FASTED (N = 14)

In the case of `N#Cc1ccc(-c2cnc3ccc(-c4ccc(C(=O)N5CCOCC5)cc4)cn23)cc1` [ETC‐206], the “serious adverse events related to ETC‐206” value (healthy volunteers [1]; general safety) is reported as “did not show any serious adverse events”, the “AEs grade 1–2 CTCAE, %” value (healthy volunteers [1]; [10]) is reported as 9 (56) and the “AEs grade 3 CTCAE: ↑CK, %” value (healthy volunteers [1]; [10]) is reported as 0. The “Gastrointestinal disorders, %” value (healthy volunteers [1]; [10]) was 4 (25), the “Investigations, %” value (healthy volunteers [1]; [10]) was 5 (31) and the “↑ALT (%)” value (healthy volunteers [1]; [10]) was 1 (6). The “↑CK (%)” value (healthy volunteers [1]; [10]) was 1 (6), the “↓WBC (%)” value (healthy volunteers [1]; [10]) was 3 (19) and the “SAEs: seizure (%)” value (healthy volunteers [1]; 10 mg single dose FASTED (N = 16), not drug-related) was 1 (6) ^a. The “AEs grade 1–2 CTCAE, %” value (healthy volunteers [1]; 10 mg single dose FED (N = 9)) was 9 (100), the “AEs grade 3 CTCAE: ↑CK, %” value (healthy volunteers [1]; 10 mg single dose FED (N = 9)) was 0 and the “Gastrointestinal disorders, %” value (healthy volunteers [1]; 10 mg single dose FED (N = 9)) was 2 (22). The “Investigations, %” value (healthy volunteers [1]; 10 mg single dose FED (N = 9)) was 1 (11), the “SAEs: seizure (%)” value (healthy volunteers [1]; 10 mg single dose FED (N = 9)) was 0 and the “↑ALT (%)” value (healthy volunteers [1]; 10 mg single dose FED (N = 9)) was 0. The “↑CK (%)” value (healthy volunteers [1]; 10 mg single dose FED (N = 9)) was 0, the “↓WBC (%)” value (healthy volunteers [1]; 10 mg single dose FED (N = 9)) was 1 (11) and the “AEs grade 1–2 CTCAE, %” value (healthy volunteers [1]; [11]) was 11 (79). For the same compound, the “Gastrointestinal disorders, %” value (healthy volunteers [1]; [11]) was 3 (21), the “Investigations, %” value (healthy volunteers [1]; [11]) was 1 (7) and the “SAEs: seizure (%)” value (healthy volunteers [1]; [11]) was 0. The “↑ALT (%)” value (healthy volunteers [1]; [11]) was 0, the “↑CK (%)” value (healthy volunteers [1]; [11]) was 0 and the “↓WBC (%)” value (healthy volunteers [1]; [11]) was 0. The “AEs grade 3 CTCAE: ↑CK, %” value (healthy volunteers [1]; 20 mg single dose FASTED (N = 14), not drug-related) was 1 (7) ^b, the “Diarrhea, %” value (healthy volunteers [1]; [10]) was 3 (19) and the “Diarrhea, %” value (healthy volunteers [1]; 10 mg single dose FED (N = 9)) was 2 (22) ^f. For the same compound, the “Diarrhea, %” value (healthy volunteers [1]; [11]) was 3 (21) ^g, the maximum administered dose (healthy volunteers [1]; single dose, fasted, no dose‐limiting toxicity, not the maximum tolerated dose) was 20 mg and the mutagenicity (bacteria) was “did not show any mutagenicity”. The mutagenicity (rat) was “did not show any mutagenicity”, the mutagenicity [2] was “did not show any mutagenicity” and the “highest unbound mean free fraction AUC0−last at NOAEL” value (dogs [3]) was 670 ng·h/mL. The “highest unbound mean free fraction Cmax at NOAEL” value (dogs [3]) was 11.8 ng/mL, the bile duct proliferation (dogs [3]; 4 weeks, medium and high doses) was “minimal to mild” and the “liver enzymes (ALT, alkaline phosphatase, gamma glutamyltransferase)” value (dogs [3]; 4 weeks, medium and high doses) was “increase in liver enzymes”. It also gave an NOAEL at 4 weeks (4-week study in dogs; in vivo) of 3 mg/kg/day, an AUC(0-t) (4-week study in dogs; plasma, 3 mg/kg/day) of 7230 ng·h/mL and a Cmax (4-week study in dogs; plasma, 3 mg/kg/day) of 935 ng/mL. The dose proportionality ([4]; 10 to 20 mg single doses in fasted condition) was “showed dose proportionality”, the “Mean t1/2” value ([4]; oral 10 mg single dose FASTED (N = 16)) was 22.95 [5.63] hour and the “Mean t1/2” value ([4]; oral 10 mg single dose FED (N = 9)) was 27.57 [5.68] hour. For the same compound, the AUC(0-inf) [4, 12] was 24400 ng·h/mL, the AUC(0-inf) [4, 13] was 30000 ng·h/mL and the AUC(0-t) [4, 12] was 21900 ng·h/mL. The AUC(0-t) [4, 13] was 28700 ng·h/mL, the Cmax [4, 12] was 927 ng/mL and the Tmax [4, 12] was 1.11 h. It also gave a half-life [4, 12] of roughly 23 h, a half-life [4, 13] of roughly 28 h and a Vd/F [4, 12] of 13.9 L. It also gave an AUC(0-inf) [4, 14] of 60300 ng·h/mL, an AUC(0-t) [4, 14] of 57800 ng·h/mL and a Cmax [4, 14] of 1950 ng/mL. The Tmax [4, 14] was 1 h, the half-life [4, 14] was 25.8 h and the Vd/F [4, 14] was 12.5 L. For the same compound, the tumor growth (mouse model of CML‐BC; in combination with tyrosine kinase inhibitors) was “inhibited tumor growth”, the antitumor activity (mouse model of CML‐BC; single agent) was “no antitumor activity” and the “cardiovascular parameters (blood pressure, heart rate, cardiac repolarization)” value (dogs [5]) was “affected cardiovascular (CV) parameters”. For the same compound, the “plasma levels of pro‐inflammatory cytokines, chemokines, and growth factors” value [6] was “decrease plasma levels”, the “relationship between ETC‐206 plasma concentrations and changes from baseline of QTcF” value (healthy volunteers [7]; mixed effects regression model, flat slope (P = 0.7) of each dose and condition) was “no relationship” and the proarrhythmic risks (healthy volunteers [7]; range of doses explored (10 and 20 mg single doses)) was “no evidence for ETC‐206 proarrhythmic risks”. The “survival of stem cells” value [8] was “impeded survival”, the “plasma protein binding in humans compared with dogs” value (Plasma protein binding) was “higher” and the IC50 (phosphodiesterase 3) was 2250 nM. For the same compound, the “activity on plasma cytokines, chemokines, and growth factors” value [9] was “did not show any activity”.
